Reference: article PMC8571316 (Scientific Reports, 2021)
Peptide text beside a SMILES is read from it. * marks the point of attachment. Biotin = O=C1N[C@H]2[C@H](CS[C@H]2CCCCC(=O)*)N1; PEG4 = NCCOCCOCCOCCOCCC(=O)O

Assays:
SARS-CoV-2 S1 protein [1] = molecular target: T1, SARS-CoV-2 S1 protein (Severe acute respiratory syndrome coronavirus 2, UniProt P0DTC2); type: binding
T1 construct: immobilized SARS-CoV-2 S1 protein (His-tag, #S1N-C52H3, Acro Biosystems); His-tag; purchased Acro Biosystems S1N-C52H3

SARS-CoV-2 S1 protein [2] = molecular target: T1, SARS-CoV-2 S1 protein; experiment: biochemical; type: binding; settings: for kon: read-out: S1 Protein in Binding Buffer ka (1/Ms); for koff: read-out: S1 Protein in Binding Buffer kdis (1/s)

Compound | binding to S1 protein in ELISA-like assay (in words) (SARS-CoV-2 S1 protein [1]) | kon (SARS-CoV-2 S1 protein [2]) | koff (SARS-CoV-2 S1 protein [2])
CC(C)C[C@H](NC(=O)[C@H](CC(=O)O)NC(=O)[C@H](CCC(=O)O)NC(=O)[C@H](Cc1c[nH]c2ccccc12)NC(=O)[C@H](CCC(=O)O)NC(=O)[C@H](CC(C)C)NC(=O)[C@H](CC(N)=O)NC(=O)[C@H](Cc1ccccc1)NC(=O)[C@@H](NC(=O)[C@H](Cc1ccccc1)NC(=O)[C@H](CC(C)C)NC(=O)[C@H](Cc1ccccc1)NC(=O)[C@H](CC(C)C)NC(=O)[C@@H](NC(=O)[C@H](Cc1c[nH]c2ccccc12)NC(=O)[C@H](CC(=O)O)NC(=O)CCOCCOCCOCCOCCNC(=O)CCCC[C@@H]1SC[C@@H]2NC(=O)N[C@@H]21)[C@@H](C)O)C(C)C)C(=O)N[C@@H](Cc1ccccc1)C(=O)N[C@@H](Cc1ccc(O)cc1)C(=O)O [Peptide P89] ({Biotin-PEG4}-DWTLFLFVFNLEWEDLFY-OH; C-terminus assumed) | higher binding affinity than the original ACE2 fragment (SBP1) | 7800 M⁻¹ s⁻¹ | 0.000969 s⁻¹
CC[C@H](C)[C@H](NC(=O)[C@H](CCC(=O)O)NC(=O)[C@H](Cc1ccc(O)cc1)NC(=O)[C@H](Cc1ccc(O)cc1)NC(=O)[C@H](CCSC)NC(=O)[C@H](Cc1c[nH]cn1)NC(=O)[C@H](CCSC)NC(=O)[C@H](Cc1c[nH]c2ccccc12)NC(=O)[C@H](CCCCN)NC(=O)[C@H](CC(=O)O)NC(=O)[C@H](Cc1c[nH]c2ccccc12)NC(=O)[C@H](CCC(=O)O)NC(=O)[C@@H](NC(=O)[C@H](CCCCN)NC(=O)CCOCCOCCOCCOCCNC(=O)CCCC[C@@H]1SC[C@@H]2NC(=O)N[C@@H]21)[C@@H](C)O)C(=O)N[C@@H](Cc1ccccc1)C(=O)N[C@@H](Cc1ccc(O)cc1)C(=O)N[C@@H](CCC(=O)O)C(=O)N[C@@H](CC(=O)O)C(=O)O [Peptide P100] ({Biotin-PEG4}-KTEWDKWMHMYYEIFYED-OH; C-terminus assumed) | higher binding affinity than the original ACE2 fragment (SBP1) | 3930 M⁻¹ s⁻¹ | 0.000728 s⁻¹
CC[C@H](C)[C@H](NC(=O)[C@H](CC(=O)O)NC(=O)[C@H](Cc1ccccc1)NC(=O)[C@H](CC(N)=O)NC(=O)CCOCCOCCOCCOCCNC(=O)CCCC[C@@H]1SC[C@@H]2NC(=O)N[C@@H]21)C(=O)N[C@@H](CC(C)C)C(=O)N[C@@H](CC(C)C)C(=O)N[C@@H](Cc1ccccc1)C(=O)N[C@H](C(=O)N[C@@H](Cc1ccccc1)C(=O)N[C@@H](CC(N)=O)C(=O)N[C@@H](Cc1ccc(O)cc1)C(=O)N[C@@H](CCC(=O)O)C(=O)N[C@@H](CCSC)C(=O)N[C@@H](CCC(=O)O)C(=O)N[C@@H](CC(=O)O)C(=O)N[C@@H](CCCCN)C(=O)N[C@@H](Cc1ccccc1)C(=O)N[C@@H](Cc1ccc(O)cc1)C(=O)O)C(C)C [Peptide P168] ({Biotin-PEG4}-NFDILLFVFNYEMEDKFY-OH; C-terminus assumed) | higher binding affinity than the original ACE2 fragment (SBP1) | 7490 M⁻¹ s⁻¹ | 0.00107 s⁻¹
CC[C@H](C)[C@H](NC(=O)[C@@H](NC(=O)[C@H](Cc1ccc(O)cc1)NC(=O)[C@H](Cc1ccccc1)NC(=O)[C@H](Cc1ccc(O)cc1)NC(=O)[C@@H](NC(=O)[C@H](CCC(=O)O)NC(=O)[C@H](CCSC)NC(=O)[C@H](Cc1c[nH]c2ccccc12)NC(=O)[C@H](Cc1c[nH]cn1)NC(=O)[C@H](CO)NC(=O)[C@H](Cc1ccccc1)NC(=O)[C@H](CCSC)NC(=O)[C@H](CC(=O)O)NC(=O)[C@H](Cc1c[nH]c2ccccc12)NC(=O)[C@H](CC(=O)O)NC(=O)[C@@H](NC(=O)[C@H](CCCCN)NC(=O)CCOCCOCCOCCOCCNC(=O)CCCC[C@@H]1SC[C@@H]2NC(=O)N[C@@H]21)[C@@H](C)O)[C@@H](C)CC)C(C)C)C(=O)O [Peptide P180] ({Biotin-PEG4}-KTDWDMFSHWMEIYFYVI-OH; C-terminus assumed) | higher binding affinity than the original ACE2 fragment (SBP1) | 3830 M⁻¹ s⁻¹ | 0.000929 s⁻¹
